Each structure is given as a SMILES string.

The target of one experiment is T1, human cathepsin S (CatS) (Homo sapiens, UniProt P25774).
T1 construct: made in house; host or cells: baculovirus system (insect cells)
T1 sequence (P25774 115-331): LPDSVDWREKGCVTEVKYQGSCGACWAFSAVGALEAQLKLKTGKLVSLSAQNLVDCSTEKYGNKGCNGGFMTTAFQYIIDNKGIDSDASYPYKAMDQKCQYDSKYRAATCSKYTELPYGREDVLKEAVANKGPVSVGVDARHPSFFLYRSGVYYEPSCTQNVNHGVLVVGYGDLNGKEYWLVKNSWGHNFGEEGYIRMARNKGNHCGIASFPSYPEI
The experiment in a line: Recombinant human cathepsin S (CatS) fluorogenic substrate inhibition assay. The class given is biochemical.
Details: not given
On the procedure:
Recombinant human cathepsin S (CatS) was expressed in the baculovirus system and purified in one step with a thiopropyl-sepharose column. […] The assay is run in 150 mM sodium acetate pH 5.0 containing 1.5 mM DTT and 150 mM NaCl. […] Measurements are taken every min for 20 min. The rate is calculated from the slope of the increase in fluorescence and the percent inhibition is calculated from this.
For `CC(C)CC(=O)NCc1cc(-c2nn(CC(O)CN3CCC(c4ccccc4)CC3)c3c2CN(S(C)(=O)=O)CC3)ccc1C(F)(F)F` (centres unmarked) [Example 288, N-(5-{1-[2-Hydroxy-3-(4-phenyl-piperidin-1-yl)-propyl]-5-methanesulfonyl-4,5,6,7-tetrahydro-1H-pyrazolo[4,3-c]pyridin-3-yl}-2-trifluoromethyl-benzyl)-3-methyl-butyramide], the IC50 amounted to 10 nM.

Still in this experiment, the particulars now being: recombinant human CatS, 10 μM Z-Valine-Valine-Arginine-AMC, pH 5.0; average of results obtained; read-out: CatS IC50.
With `CC(C)CC(=O)NCc1cc(-c2nn(CC(O)CN3CCC(c4nnn[nH]4)CC3)c3c2CN(S(C)(=O)=O)CC3)ccc1C(F)(F)F` (centres unmarked) [Example 277, N-[5-(1-{2-Hydroxy-3-[4-(1H-tetrazol-5-yl)-piperidin-1-yl]-propyl}-5-methanesulfonyl-4,5,6,7-tetrahydro-1H-pyrazolo[4,3-c]pyridin-3-yl)-2-trifluoromethyl-benzyl]-3-methyl-butyramide], the IC50 turned out to be 140 nM.
Consider `CC(C)CCNCc1cc(-c2nn(CC(O)CN3CCC(N4CCOCC4)CC3)c3c2CN(S(C)(=O)=O)CC3)ccc1C(F)(F)F` (centres unmarked) [Example 282, 1-(5-Methanesulfonyl-3-{3-[(3-methyl-butylamino)-methyl]-4-trifluoromethyl-phenyl}-4,5,6,7-tetrahydro-pyrazolo[4,3-c]pyridin-1-yl)-3-(4-morpholin-4-yl-piperidin-1-yl)-propan-2-ol], for which the half-inhibitory concentration (IC50) stood at 860 nM.
For the compound `CC(C)CC(=O)NCc1cc(-c2nn(CC(O)CN3CCC(C(=O)N4CCCC4)CC3)c3c2CN(S(C)(=O)=O)CC3)ccc1C(F)(F)F` (centres unmarked) [Example 284, N-[5-(1-{2-Hydroxy-3-[4-(pyrrolidine-1-carbonyl)-piperidin-1-yl]-propyl}-5-methanesulfonyl-4,5,6,7-tetrahydro-1H-pyrazolo[4,3-c]pyridin-3-yl)-2-trifluoromethyl-benzyl]-3-methyl-butyramide], the IC50 is 60 nM.
Regarding `Cc1noc(C2CCCN(CC(O)Cn3nc(-c4ccc(C(F)(F)F)c(CNC(=O)CC(C)C)c4)c4c3CCN(S(C)(=O)=O)C4)C2)n1` (centres unmarked) [Example 285, N-[5-(1-{2-Hydroxy-3-[3-(3-methyl-[1,2,4]oxadiazol-5-yl)-piperidin-1-yl]-propyl}-5-methanesulfonyl-4,5,6,7-tetrahydro-1H-pyrazolo[4,3-c]pyridin-3-yl)-2-trifluoromethyl-benzyl]-3-methyl-butyramide], the half-maximal inhibitory concentration (IC50) turned out to be 390 nM.
As to `Cc1noc(C2CCN(CC(O)Cn3nc(-c4ccc(C(F)(F)F)c(CNC(=O)CC(C)C)c4)c4c3CCN(S(C)(=O)=O)C4)CC2)n1` (centres unmarked) [Example 286, N-[5-(1-{2-Hydroxy-3-[4-(3-methyl-[1,2,4]oxadiazol-5-yl)-piperidin-1-yl]-propyl}-5-methanesulfonyl-4,5,6,7-tetrahydro-1H-pyrazolo[4,3-c]pyridin-3-yl)-2-trifluoromethyl-benzyl]-3-methyl-butyramide], the concentration for half-maximal inhibition (IC50) came out at 30 nM.
For `CC(C)CC(=O)NCc1cc(-c2nn(CC(O)CN3CCC(O)(c4ccc(Br)cc4)CC3)c3c2CN(S(C)(=O)=O)CC3)ccc1C(F)(F)F` (centres unmarked) [Example 287, N-[5-(1-{3-[4-(4-Bromo-phenyl)-4-hydroxy-piperidin-1-yl]-2-hydroxy-propyl}-5-methanesulfonyl-4,5,6,7-tetrahydro-1H-pyrazolo[4,3-c]pyridin-3-yl)-2-trifluoromethyl-benzyl]-3-methyl-butyramide], the IC50 is 60 nM.
Turning to `CS(=O)(=O)N1CCc2c(c(-c3ccc(C(F)(F)F)c(CNCc4ccc(F)cc4)c3)nn2CCCN2CCC(C3CCCCC3)CC2)C1` [Example 296, (5-{1-[3-(4-Cyclohexyl-piperidin-1-yl)-propyl]-5-methanesulfonyl-4,5,6,7-tetrahydro-1H-pyrazolo[4,3-c]pyridin-3-yl}-2-trifluoromethyl-benzyl)-(4-fluoro-benzyl)-amine], the IC50 is 20 nM.

As usually defined, the IC50 is the point on the concentration scale where inhibition reaches its midpoint.
